Experimental data from ChEMBL document CHEMBL5050844 (2019).

How the values were obtained:
[1] = Induction of activation of human CD56+ CD3- NK cells co-cultured with human K562 cells in 5:1 ratio and assessed as increase in MIP1beta secretion at 10 uM measured by ELISA assay; assay type: functional, Natural killer cell
[2] = Induction of anti-CD3 antibodies-stimulated human CD4+ T cell activation in immunocompetent mouse assessed fold increase in CD25 expression at 90 mg/kg, po administered twice a day; assay type: functional; also: reference of the scale not given here
[3] = Induction of anti-CD3 antibodies-stimulated human CD8+ T cell activation in immunocompetent mouse assessed fold increase in CD25 expression at 45 mg/kg, ip administered twice a day; assay type: functional; also: reference of the scale not given here
[4] = Induction of anti-CD3 antibodies-stimulated human CD4+ T cell activation in immunocompetent mouse assessed fold increase in CD25 expression at 45 mg/kg, ip administered twice a day; assay type: functional; also: reference of the scale not given here
[5] = Induction of anti-CD3/CD28 antibodies-stimulated human T cell activation at 0.3 uM assessed fold increase in IL-2 secretion measured by ELISA assay; assay type: functional, T cell line
[6] = Induction of activation of human CD56+ CD3- NK cells co-cultured with human K562 cells in 1:1 ratio and assessed as increase in TNF-alpha secretion at 1 uM measured by ELISA assay; assay type: functional, Natural killer cell
[7] = Induction of anti-CD3/CD28 antibodies-stimulated human T cell activation at 1 uM assessed fold increase in CD25 expression measured by ELISA assay; assay type: functional, T cell line
[8] = molecular target: T1, E3 ubiquitin-protein ligase CBL-B (Homo sapiens, UniProt Q13191); experiment: Binding affinity towards N-terminal biotinylated Avi-tagged human CBL-B (36 to 427 residues) measured by surface plasmon resonance assay
T1 sequence (Q13191 whole entry, the tested form may be a part): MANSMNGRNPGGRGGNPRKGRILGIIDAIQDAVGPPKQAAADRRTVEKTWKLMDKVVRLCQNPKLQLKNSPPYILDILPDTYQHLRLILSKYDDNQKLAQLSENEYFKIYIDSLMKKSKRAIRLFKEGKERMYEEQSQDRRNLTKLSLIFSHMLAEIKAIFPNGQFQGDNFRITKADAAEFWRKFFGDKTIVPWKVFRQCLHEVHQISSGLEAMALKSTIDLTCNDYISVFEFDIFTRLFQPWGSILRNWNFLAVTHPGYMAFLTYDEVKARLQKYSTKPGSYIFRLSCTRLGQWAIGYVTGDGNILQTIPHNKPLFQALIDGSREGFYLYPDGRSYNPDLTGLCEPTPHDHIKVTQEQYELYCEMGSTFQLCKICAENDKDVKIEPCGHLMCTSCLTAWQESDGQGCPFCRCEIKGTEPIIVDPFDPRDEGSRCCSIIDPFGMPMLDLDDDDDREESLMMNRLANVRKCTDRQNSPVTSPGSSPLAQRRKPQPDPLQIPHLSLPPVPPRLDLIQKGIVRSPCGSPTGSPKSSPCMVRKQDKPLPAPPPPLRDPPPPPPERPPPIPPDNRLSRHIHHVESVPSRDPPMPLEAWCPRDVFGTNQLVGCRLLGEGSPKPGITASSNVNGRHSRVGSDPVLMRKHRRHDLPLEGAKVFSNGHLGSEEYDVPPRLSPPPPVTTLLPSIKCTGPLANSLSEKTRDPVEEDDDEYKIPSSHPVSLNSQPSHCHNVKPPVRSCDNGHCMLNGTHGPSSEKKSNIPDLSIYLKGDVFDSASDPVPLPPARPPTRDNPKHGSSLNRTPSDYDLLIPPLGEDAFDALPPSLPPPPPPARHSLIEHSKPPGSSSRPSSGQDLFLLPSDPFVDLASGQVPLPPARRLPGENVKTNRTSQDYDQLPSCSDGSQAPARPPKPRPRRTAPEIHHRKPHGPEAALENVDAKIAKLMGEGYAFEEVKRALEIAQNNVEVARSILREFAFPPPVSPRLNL

[9] = Induction of anti-CD3/CD28 antibodies-stimulated human T cell activation at 0.3 uM assessed fold increase in CD25 expression measured by ELISA assay; assay type: functional, T cell line
[10] = Induction of anti-CD3 antibodies-stimulated human CD8+ T cell activation in immunocompetent mouse assessed fold increase in CD25 expression at 135 mg/kg, po administered twice a day; assay type: functional; also: reference of the scale not given here
[11] = Induction of activation of human CD56+ CD3- NK cells co-cultured with human K562 cells in 5:1 ratio and assessed as increase in IFN-gamma secretion at 1 uM measured by ELISA assay; assay type: functional, Natural killer cell
[12] = Induction of anti-CD3 antibodies-stimulated human T cell activation at 8 uM assessed fold increase in CD25 expression measured by ELISA assay; assay type: functional, T cell line; also: reference of the scale not given here
[13] = Induction of activation of human CD56+ CD3- NK cells co-cultured with human K562 cells in 5:1 ratio and assessed as increase in MIP1beta secretion at 1 uM measured by ELISA assay; assay type: functional, Natural killer cell
[14] = Induction of anti-CD3 antibodies-stimulated human CD4+ T cell activation in immunocompetent mouse assessed fold increase in CD25 expression at 135 mg/kg, po administered twice a day; assay type: functional; also: reference of the scale not given here
[15] = Induction of activation of human CD56+ CD3- NK cells co-cultured with human K562 cells in 1:1 ratio and assessed as increase in MIP1beta secretion at 1 uM measured by ELISA assay; assay type: functional, Natural killer cell
[16] = Induction of activation of human CD56+ CD3- NK cells co-cultured with human K562 cells in 5:1 ratio and assessed as increase in TNF-alpha secretion at 1 uM measured by ELISA assay; assay type: functional, Natural killer cell
[17] = Induction of anti-CD3 antibodies-stimulated human CD4+ T cell activation in immunocompetent mouse assessed fold increase in CD25 expression at 45 mg/kg, po administered twice a day; assay type: functional; also: reference of the scale not given here
[18] = Induction of anti-CD3 antibodies-stimulated human T cell activation at 1 uM assessed fold increase in CD25 expression measured by ELISA assay; assay type: functional, T cell line; also: reference of the scale not given here
[19] = Induction of anti-CD3 antibodies-stimulated human T cell activation at 8 uM assessed fold increase in IL-2 secretion measured by ELISA assay; assay type: functional, T cell line; also: reference of the scale not given here
[20] = Induction of activation of human CD56+ CD3- NK cells co-cultured with human K562 cells in 5:1 ratio and assessed as increase in IFN-gamma secretion at 10 uM measured by ELISA assay; assay type: functional, Natural killer cell
[21] = Induction of activation of human CD56+ CD3- NK cells co-cultured with human K562 cells in 1:1 ratio and assessed as increase in IFN-gamma secretion at 1 uM measured by ELISA assay; assay type: functional, Natural killer cell
[22] = Induction of activation of human CD56+ CD3- NK cells co-cultured with human K562 cells in 5:1 ratio and assessed as increase in TNF-alpha secretion at 10 uM measured by ELISA assay; assay type: functional, Natural killer cell
[23] = Induction of activation of human CD56+ CD3- NK cells co-cultured with human K562 cells in 1:1 ratio and assessed as increase in TNF-alpha secretion at 10 uM measured by ELISA assay; assay type: functional, Natural killer cell
[24] = Induction of anti-CD3 antibodies-stimulated human CD8+ T cell activation in immunocompetent mouse assessed fold increase in CD25 expression at 90 mg/kg, po administered twice a day; assay type: functional; also: reference of the scale not given here
[25] = Induction of anti-CD3 antibodies-stimulated human CD8+ T cell activation in immunocompetent mouse assessed fold increase in CD25 expression at 180 mg/kg, po administered twice a day; assay type: functional; also: reference of the scale not given here
[26] = Induction of anti-CD3/CD28 antibodies-stimulated human T cell activation at 4 uM assessed fold increase in IL-2 secretion measured by ELISA assay; assay type: functional, T cell line
[27] = molecular target: T1, E3 ubiquitin-protein ligase CBL-B; experiment: Inhibition of N-terminal Avi-tagged human CBL-B (36 to 427 residues) incubated with 60 nM Src kinase for 1.5 hrs followed by incubation with fluorescently labeled UbcH5B-Ub for 1 hr and measured by TR-FRET assay; assay type: single protein
[28] = Induction of activation of human CD56+ CD3- NK cells co-cultured with human K562 cells in 1:1 ratio and assessed as increase in IFN-gamma secretion at 10 uM measured by ELISA assay; assay type: functional, Natural killer cell
[29] = Induction of anti-CD3 antibodies-stimulated human CD4+ T cell activation in immunocompetent mouse assessed fold increase in CD25 expression at 180 mg/kg, po administered twice a day; assay type: functional; also: reference of the scale not given here
[30] = Induction of anti-CD3/CD28 antibodies-stimulated human T cell activation at 1 uM assessed fold increase in IL-2 secretion measured by ELISA assay; assay type: functional, T cell line
[31] = Induction of anti-CD3/CD28 antibodies-stimulated human T cell activation at 4 uM assessed fold increase in CD25 expression measured by ELISA assay; assay type: functional, T cell line
[32] = Induction of activation of human CD56+ CD3- NK cells co-cultured with human K562 cells in 1:1 ratio and assessed as increase in MIP1beta secretion at 10 uM measured by ELISA assay; assay type: functional, Natural killer cell
[33] = Induction of anti-CD3 antibodies-stimulated human T cell activation at 1 uM assessed fold increase in IL-2 secretion measured by ELISA assay; assay type: functional, T cell line; also: reference of the scale not given here
[34] = Induction of anti-CD3 antibodies-stimulated human CD8+ T cell activation in immunocompetent mouse assessed fold increase in CD25 expression at 90 mg/kg, ip administered twice a day; assay type: functional; also: reference of the scale not given here
[35] = Induction of anti-CD3 antibodies-stimulated human CD4+ T cell activation in immunocompetent mouse assessed fold increase in CD25 expression at 90 mg/kg, ip administered twice a day; assay type: functional; also: reference of the scale not given here

SMILES | fold change (FC) [1] | fold change (FC) [5] | fold change (FC) [6] | fold change (FC) [7] | fold change (FC) [9] | fold change (FC) [11] | fold change (FC) [12] | fold change (FC) [13] | fold change (FC) [15] | fold change (FC) [16] | fold change (FC) [18] | fold change (FC) [19] | fold change (FC) [20] | fold change (FC) [21] | fold change (FC) [22] | fold change (FC) [23] | fold change (FC) [26] | fold change (FC) [28] | fold change (FC) [30] | fold change (FC) [31] | also measured
C[C@H](Cc1nncn1C)c1cccc(NC(=O)c2cc(C3CC3)cc(C(F)(F)F)n2)c1 | 1.01 | 2.51 | 2.01 | 1.51 | 1.31 | 2.01 | >=1.001 | 1.01 | 1.01 | 2.01 | >=1.001 | >=0.201 | >=5 | 2.01 | 2.01 | 1.01 | >=7.5 | 2.01 | 5 | 1.51 | fold change (FC) [2]: 1; fold change (FC) [3]: 1; fold change (FC) [4]: 1.51; Kd [8]: < 100 nM; fold change (FC) [10]: 1; fold change (FC) [14]: 2.01; fold change (FC) [17]: 1; fold change (FC) [24]: 1; fold change (FC) [25]: 1; IC50 [27]: < 100 nM; fold change (FC) [29]: 1; fold change (FC) [32]: 1.01; fold change (FC) [33]: >=0.201
C[C@H](Cc1nncn1C)c1cccc(NC(=O)c2ccnc(C(F)(F)F)n2)c1 | 2.01 | 1.01 | <=1 | >=1.76 | 1.51 | 2.01 | >=1.001 | 1.01 | 1.01 | 2.01 | 0.801 | >=0.201 | >=5 | 1.01 | >=5 | 2.01 | >=7.5 | 2.01 | 2.51 | >=1.76 | fold change (FC) [34]: 1; fold change (FC) [35]: 1.51; fold change (FC) [32]: 2.01; fold change (FC) [33]: >=0.201
